Several values for one entry are separate records, joined by “and”; a condition that tells them apart may be missing. Identical values can stand only once. Entries after “also recorded” stand apart in the source; their conditions may differ. Like-named read-outs stand apart in the source and are kept apart here.
Assays:
[1] = system: human breast carcinoma cells (MCF-7); test: MTT cytotoxicity assay, MCF-7; assay type: cell-based; settings: for IC50: MTT, 48 h, means ± SD of three experiments, read-out: IC50 (μM) MCF-7
[2] = system: human lung carcinoma cells (A549); test: MTT cytotoxicity assay, A549; assay type: cell-based; settings: A549, MTT, 48 h, means ± SD of three experiments, read-out: IC50 (μM) A549
[3] = system: human colorectal cells (HCT-116); test: MTT cytotoxicity assay, HCT-116; assay type: cell-based; settings: HCT-116, MTT, 48 h, means ± SD of three experiments, read-out: IC50 (μM) HCT-116
[4] = system: normal human gastric epithelial cells (GES-1); test: MTT cytotoxicity assay, GES-1 normal cells; assay type: cell-based; settings: GES1, MTT, 48 h, normal cells, means ± SD of three experiments, “-” not active, read-out: IC50 (μM) GES-1
[5] = system: MCF-7 cells; test: Annexin V-FITC/PI apoptosis analysis by flow cytometry; assay type: cell-based, human; settings: 24 h, control 10.54%
Method: In order to confirm whether tumor cell apoptosis was induced by compound 8f in tumor cells, the MCF-7 cells were stained in sequence with Annexin V-FITC (AV) and propidium iodide (PI). MCF-7 cells deal with compound 8f by gradient concentration (0, 3, 6 and 12 μM) for 24 h, and the rates of apoptotic cells were detected by flow cytometry.
Apoptosis was determined by staining cells with an Annexin VFITC/PI detection kit (BD Biosciences, San Jose, CA, USA). Briefly, MCF-7 cells were seeded on six-well plates (6 × 10^4 cells/mL) and incubated with compound 8f (0, 3, 6 and 12 μM) for 24 h. Cells were washed twice with cold PBS and resuspended in 500 μL of 1 × binding buffer, and then 10 μL of Annexin V-FITC and 5 μL of PI were applied to stain the cells for 15 min at room temperature in the dark. The status of stained cells was analyzed using a flow cytometer (BD, FACSCalibur, San Jose, CA, USA).

[6] = system: MCF-7 cells; test: Mitochondrial membrane potential (MMP) assay, JC-1, flow cytometry; assay type: cell-based, human; settings: 24 h
Method: Mitochondria dysfunction has been proven to be an important role in inducing apoptosis in tumor cells. The loss of mitochondrial membrane potential (MMP) has been considered to be an early manifestation of mitochondrial dysfunction in apoptotic process. Thus, we tried to explore the contribution of mitochondria in compound-8f-induced apoptosis in MCF-7 cells. JC-1 cationic dye is an ideal MMP-sensitive probe, which can measure the MMP lost by flow cytometry.
MCF-7 cells were cultured into 12-well plates at a concentration of 1 × 10^6 cells/well of the RPMI-1640 medium. Then, cells were co-cultured with compound 8f (0, 3, 6 and 12 µM) for 24 h. After treatment, cells were stained with 3 µM cationic dye JC-1 at room temperature in the dark for 30 min according to the manufacturer’s instructions (BD Biosciences, San Jose, CA, USA). Finally, cells were harvested and washed with PBS twice, and then the results were recorded by flow cytometry analysis.

[7] = system: MCF-7 cells; test: ROS level assay, H2DCFDA, flow cytometry; assay type: cell-based, human; settings: MCF-7, 12 μM, 24 h; control group 2.61%
Method: In the past years, many studies reported that intracellular amounts of reactive oxygen species (ROS) play an important role in some kinds of biological processes in tumor cells. […] Therefore, we explored if ROS stimulated by compound 8f induced apoptosis in MCF-7 cells. Cells were treated with compound 8f by gradient concentration (0, 3, 6 and 12 μM) for 24 h and then using H2DCFDA staining analysis by flow cytometry.
MCF-7 cells were cultured into 12-well plate at a concentration of 1 × 10^6 cells/well for 24 h of the RPMI-1640 medium with 10% FBS. Then, cells were co-cultured with compound 8f (0, 3, 6 and 12 µM) for 24 h. Then, the MCF-7 cells were stained with 5 µM H2DCFDA solution (400 µL/well) at room temperature in the dark for 30 min. The cells were harvested and washed with PBS twice according to the manufacturer’s instructions (Thermo Fisher Scientific, Waltham, MA, USA). The results were obtained by flow cytometry.

[8] = system: MCF-7 cells; test: Western blot of apoptosis-related proteins; assay type: cell-based, human; settings: MCF-7, 3, 6 and 12 µM, 24 h, GAPDH internal control
Method: To further explore the molecular mechanism of compound-8f-induced apoptosis in MCF-7 cells, the expression levels of the related apoptotic proteins Bcl-2, Bax, P53, caspase-3, caspase-9, cleaved caspase-3, cleaved caspase-9 and cytochrome c under treatment of compound 8f were carried out. MCF-7 cells were co-cultured with compound 8f at the gradient concentrations of 3, 6 and 12 µM for 24 h, and the related apoptotic proteins expression levels were tested by means of Western blotting. The GAPDH expression level was used as an internal control group. […] Meanwhile, the cleavage forms of the caspase proteins were evaluated (Figure 10). Compound 8f could also activated the expression levels of both cleaved caspase-3 and cleaved caspase-9 in a dose-dependent manner.
After treatment with compound 8f (0, 3, 6 and 12 µM), MCF-7 cells were harvested and lysed in RIPA buffer and boiled for 10 min at 100 °C. Equal amount of protein ([…]) were separated on a 10% SDS-PAGE gel and transferred to nitrocellulose membranes. The membranes were blocked with 5% BSA and probed with a 1:1000 dilution of primary antibody against Cl-caspase-3 (Cell Singaling Technology, Inc., Danvers, MA, USA), Cl-caspase-9 (Cell Singaling Technology Inc), P53 (Cell Singaling Technology, Inc; Danvers, MA, USA), Bcl-2 (Santa Cruz Biotechnology, Inc; Santa Cruz, CA, USA), Cytochrome c (Proteintech Group, Inc; Rosemont, IL, USA) and Bax (Proteintech Group, Inc; Rosemont, IL, USA). Then, the membranes were incubated with a 1:5000 dilution of horseradish peroxidase-conjugated secondary antibody for 2 h. Positive bands were visualized on a X-ray film using an enhanced chemiluminescence system (Kodak).

[9] = system: MCF-7 cells; test: AO/EB staining, fluorescence microscope; assay type: cell-based, human; settings: MCF-7, 0, 3, 6 and 12 μM, 24 h
Method: Firstly, the Acridine Orange/Ethidium Bromide (AO/EB) staining of MCF-7 cells treated with compound 8f was observed under a fluorescence microscope. A large number of normal cells in the control group were stained green and their nuclei were intact.
The MCF-7 cells in the logarithmic growth phase were cultured into 6-well plates (5 × 10^4 cells/mL). The cells incubated for overnight at 37 °C in an atmosphere of 5% CO2. Then the MCF-7 cells were treated with compound 8f (0, 3, 6 and 12 μM) for 24 h. The cover slip with monolayer MCF-7 cells was inverted on the glass slide with 20 μL of AO/BE stain (100 μg/mL). The fluorescence intensity was read using a fluorescence microscope (Zeiss, Oberserve A1, Oberkochen, Germany).

C=C(C)[C@@H]1CC[C@]2(/C=N/NC(=S)Nc3cccc(Cl)c3)CC[C@]3(C)[C@H](CC[C@@H]4[C@@]5(C)CC[C@H](O)C(C)(C)[C@@H]5CC[C@]43C)[C@@H]12 [Compound 8f, Lup-20(29)-ene-3β-ol-28-N-(3-chlorophenyl)thiosemicarbazide]
IC50 ([1]; Homo sapiens, MCF7, 48 h): < 10 µM | fold more potent than betulin ([1]; MCF-7, ratio of IC50 values): 3.32 fold | IC50 [1]: 5.96 µM and 5.86 µM | IC50 [2]: 10.4 ± 0.74 µM | IC50 [3]: 24.7 ± 0.9 µM | IC50 [4]: 215 ± 6.28 µM | percentage of apoptosis cells ([5]; MCF-7, 3 μM): 13.20% | percentage of apoptosis cells ([5]; MCF-7, 12 μM): 48.66% | JC-1 fluorescence intensity (upper quadrant) ([6]; MCF-7, 3 μM): 79.00% | JC-1 fluorescence intensity (upper quadrant) ([6]; MCF-7, 12 μM): 47.06% | generation of ROS level [7]: 75.22% | expression level of Bax [8]: upregulation; also recorded: increased | expression level of Bcl-2 [8]: downregulation; also recorded: suppressed | expression level of P53 [8]: upregulation; also recorded: increased | expression level of caspase-3 [8]: activation; also recorded: activated | expression level of caspase-9 [8]: activation; also recorded: activated | expression level of cleaved caspase-3 [8]: activation; also recorded: activated | expression level of cleaved caspase-9 [8]: activation; also recorded: activated | expression level of cytochrome c (cyt-c) [8]: upregulation; also recorded: increased | AO/EB staining, cell morphology [9]: some cells showed apoptotic characteristics

Reference: paper PMC8587101, “Design and Synthesis of Novel Betulin Derivatives Containing Thio-/Semicarbazone Moieties as Apoptotic Inducers through Mitochindria-Related Pathways” (Molecules, 2021)
